This is an account of results in patent US7022737B2, “Manipulating nitrosative stress to kill pathologic microbes, pathologic helminths and pathologically proliferating cells or to upregulate nitrosative stress defenses” (Duke University, priority 1996, dated 2006).

In one experiment the test system is herpes labialis. Put plainly: Patient with recurrent herpes labialis. Type of experiment: in vivo. The following applies: in Denavir (pencicyclovir cream), topically every two hours while awake. An excerpt:
A homosexually active person developed a recurrent herpes labialis (cold sore) on their lips and face. Therapy with Denavir (pencicyclovir cream) that contains buthionine sulfoximine is applied topically every two hours while awake.

For experiment [1], the target named is T1, gamma-glutamylcysteinyl synthetase (gamma-GCS) (Rattus norvegicus, UniProt P19468).
T1 sequence (P19468 1-637): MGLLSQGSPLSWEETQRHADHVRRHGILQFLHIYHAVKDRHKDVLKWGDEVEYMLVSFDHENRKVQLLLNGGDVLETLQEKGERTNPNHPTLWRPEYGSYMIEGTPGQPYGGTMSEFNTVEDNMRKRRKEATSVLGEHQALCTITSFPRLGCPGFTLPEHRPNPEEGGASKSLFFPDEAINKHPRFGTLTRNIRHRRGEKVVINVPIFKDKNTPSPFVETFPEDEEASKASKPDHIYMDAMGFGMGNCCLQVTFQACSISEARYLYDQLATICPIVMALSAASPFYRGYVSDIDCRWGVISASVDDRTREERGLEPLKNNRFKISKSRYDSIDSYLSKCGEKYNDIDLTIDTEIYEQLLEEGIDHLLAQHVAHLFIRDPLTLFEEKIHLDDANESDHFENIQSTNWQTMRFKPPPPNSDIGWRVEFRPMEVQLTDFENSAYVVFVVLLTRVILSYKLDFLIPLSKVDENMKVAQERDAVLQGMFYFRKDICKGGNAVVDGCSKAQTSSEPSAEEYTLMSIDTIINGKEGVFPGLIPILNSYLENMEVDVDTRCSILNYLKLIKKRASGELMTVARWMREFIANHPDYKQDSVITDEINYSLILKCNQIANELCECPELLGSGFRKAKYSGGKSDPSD
T1 sequence (P48508 1-274 partner): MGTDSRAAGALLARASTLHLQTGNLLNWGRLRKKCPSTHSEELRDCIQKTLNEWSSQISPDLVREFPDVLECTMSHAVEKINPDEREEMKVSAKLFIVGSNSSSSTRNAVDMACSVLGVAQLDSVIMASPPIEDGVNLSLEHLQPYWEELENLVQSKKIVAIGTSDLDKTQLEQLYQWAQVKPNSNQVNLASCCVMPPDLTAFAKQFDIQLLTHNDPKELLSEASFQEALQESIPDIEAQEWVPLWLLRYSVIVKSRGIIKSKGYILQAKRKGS
To be noted: mammalian systems, literature; cited from earlier work.

Experiment [2] concerns the target T2, E. coli gamma-glutamylcysteine synthetase (Escherichia coli, UniProt P0A6W9).
T2 construct: made in house
The experiment in a line: Inactivation of E. coli gamma-GCS by homocysteine sulfoximines (preincubation with ATP, residual activity by coupled PK/LDH assay). Type of experiment: biochemical. The following applies: 100 μM inhibitor. The method, then: E. coli gamma-GCS was isolated from bacterial cells engineered to overexpress the enzyme; the isolation procedure was similar to that used previously to isolate mammalian gamma-GCS. […] The enzyme was assayed in reaction mixtures (final volume=1.0 ml) containing: 150 mM Tris·HCl, pH 8.2, 100 mM KCl, 25 mM MgCl2, 7.5 mM ATP, 7.5 mM phosphoenolpyruvate, 0.3 mM EDTA, 10 mM L-glutamate, 10 mM L-α-aminobutyrate (an L-cysteine analog), 0.3 mM NADH, 5 IU pyruvate kinase, and 5 IU lactate dehydrogenase. Reaction was initiated by adding gamma-GCS; in control studies, L-α-aminobutyrate was omitted from the reaction mixture. In this assay, pyruvate kinase (PK) and lactate dehydrogenase (LDH) are added in excess to detect formation of ADP, one of the products of the gamma-GCS reaction. The relevant enzyme reactions are shown as equations 1–3 below. Oxidation of NADH to NAD^+ is followed and quantitated spectrophotometrically at 340 nm (1 μmol oxidation gives ΔOD=−6.2) and is directly proportional to product formation by gamma-GCS. [drawing 2]
Inhibition by homocysteine sulfoximines was carried out by preincubating the E. coli gamma-GCS with potential inhibitors in the presence of ATP and then removing aliquots of that mixture at specific times and assaying for residual activity using the assay procedure described above. The preincubation reaction mixtures contained (final volume=400 μl) the following: 210 mM Tris·HCl, pH 8.2, 142 mM KCl, 36 mM MgCl2, 10 mM ATP, 0.4 mM EDTA, various amounts of sulfoximine, and gamma-GCS. At intervals, 50 μl aliquots were removed and added to 1.0 ml assay reaction mixtures to determine residual activity spectrophotometrically. Results of a study indicate that E. coli gamma-GCS loses about 27% of its activity over 30 minutes in the absence of added inhibitors; this loss of activity represents an inherent instability in the enzyme when incubated under these reaction conditions in this particular experiment. […]

Another experiment deals with restenosis. Put plainly: Patients with coronary stenosis treated to prevent restenosis. It is filed as in vivo. The text has this: BSO therapy is continued for one week.
A person with blue eyes and gray hair presents with chest pain. […] The patient undergoes balloon angioplasty and placement of a Palmaz-Schatz stent, which is P^32-implanted and coated with a cyclodextran polymer to which BSO is attached by an ester linkage.
A patient similar to the one described above undergoes balloon angioplasty and placement of a Palmaz-Schatz stent which is coated with cyclodextran polymer to which ethyl maleate is attached by an ester linkage. […]
A person with restenosis six months post angioplasty has a Palmaz-Schatz stent placed. The stent is coated with a porous polymer containing 10% of the siderophore ferrioxamine B and 0.1% each of interleukin-1 and interferon-gamma. The latter agents induce the local expression of the inducible isoform of nitric oxide synthase. […]

For experiment [3], the system named is metastatic malignant melanoma. The experiment in a line: Patient with metastatic malignant melanoma. Type of experiment: in vivo. To be noted: L-buthionine-S-sulfoximine 2 mmol/kg p.o. every 4 hours and hydroxyurea 10 mg/kg p.o., one week. On the procedure:
A person […] and a history of surgery five years previously to remove malignant melanotic nevi from their upper back and chest is found to have blood in their stool on routine physical examination. […] The patient is administered L-buthionine-S-sulfoximine (2 mmol/kg) p.o. every 4 hours for one week and is given 10 mg/kg of hydroxyurea p.o. 1 hour after every third dose of L-buthionine-S-sulfoximine. […] The patient shown no further evidence of metastases during a six month follow-up.

T2 sequence (P0A6W9 whole entry): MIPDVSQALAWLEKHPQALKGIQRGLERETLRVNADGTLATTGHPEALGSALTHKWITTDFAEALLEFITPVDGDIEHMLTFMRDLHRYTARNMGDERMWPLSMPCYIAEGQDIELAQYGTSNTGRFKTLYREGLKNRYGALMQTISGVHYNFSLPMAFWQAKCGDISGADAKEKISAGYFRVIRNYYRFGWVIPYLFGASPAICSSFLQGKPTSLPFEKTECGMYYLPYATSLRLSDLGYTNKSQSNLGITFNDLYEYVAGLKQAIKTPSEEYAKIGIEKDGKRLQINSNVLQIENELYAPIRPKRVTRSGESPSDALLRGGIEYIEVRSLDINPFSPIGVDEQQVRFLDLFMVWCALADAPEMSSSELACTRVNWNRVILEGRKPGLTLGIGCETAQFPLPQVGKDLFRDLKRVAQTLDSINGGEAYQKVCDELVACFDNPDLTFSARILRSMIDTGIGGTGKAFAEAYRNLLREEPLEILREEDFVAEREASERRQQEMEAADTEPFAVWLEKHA

Consider `CCCCS(=N)(=O)CC[C@H](N)C(=O)O` (stereo partly drawn) [L-buthionine-S-sulfoximine], for which the “mean duration of the lesion versus Denavir without BSO” value with herpes labialis is reported as “half the time shorter”. The “inhibition of gamma-GCS” value in experiment [1] is on record as “most effectively inhibited”. Besides, the “inactivation of E. coli gamma-GCS” value is 89% in experiment [2] (10 min preincubation) and “virtually complete inactivation” in experiment [2] (30 min preincubation). Besides, the clinical outcome in the experiment with restenosis (P^32-implanted stent coated with cyclodextran polymer with BSO attached by ester linkage) is given as “clinical restenosis does not occur”; with restenosis (verapamil 80 mg three times a day p.o., BSO 4 mmol/kg i.v. four times a day, NO-releasing polymer stent), “repeat angiogram at six months shows no restenosis”. Moreover, in experiment [3], the “reduction in size of metastatic tumor” value is listed as 30%.
